Assay results taken from patent US20260138961A1, “MODULATORS OF MITOCHONDRIAL DNA REPLICATION” (Pretzel Therapeutics, Inc., priority 2022, published 2026).

These compounds were tested against T1, POLγ W748S + E1143G (Homo sapiens, UniProt P54098, E1143G/W748S) (assay: DNA polymerization assay, W748S + E1143G mutant). Details: stimulation of polymerase activity, primed M13mp18 ssDNA, 37° C. 2 hours.
T1 sequence (P54098 1-1239 W748S/E1143G): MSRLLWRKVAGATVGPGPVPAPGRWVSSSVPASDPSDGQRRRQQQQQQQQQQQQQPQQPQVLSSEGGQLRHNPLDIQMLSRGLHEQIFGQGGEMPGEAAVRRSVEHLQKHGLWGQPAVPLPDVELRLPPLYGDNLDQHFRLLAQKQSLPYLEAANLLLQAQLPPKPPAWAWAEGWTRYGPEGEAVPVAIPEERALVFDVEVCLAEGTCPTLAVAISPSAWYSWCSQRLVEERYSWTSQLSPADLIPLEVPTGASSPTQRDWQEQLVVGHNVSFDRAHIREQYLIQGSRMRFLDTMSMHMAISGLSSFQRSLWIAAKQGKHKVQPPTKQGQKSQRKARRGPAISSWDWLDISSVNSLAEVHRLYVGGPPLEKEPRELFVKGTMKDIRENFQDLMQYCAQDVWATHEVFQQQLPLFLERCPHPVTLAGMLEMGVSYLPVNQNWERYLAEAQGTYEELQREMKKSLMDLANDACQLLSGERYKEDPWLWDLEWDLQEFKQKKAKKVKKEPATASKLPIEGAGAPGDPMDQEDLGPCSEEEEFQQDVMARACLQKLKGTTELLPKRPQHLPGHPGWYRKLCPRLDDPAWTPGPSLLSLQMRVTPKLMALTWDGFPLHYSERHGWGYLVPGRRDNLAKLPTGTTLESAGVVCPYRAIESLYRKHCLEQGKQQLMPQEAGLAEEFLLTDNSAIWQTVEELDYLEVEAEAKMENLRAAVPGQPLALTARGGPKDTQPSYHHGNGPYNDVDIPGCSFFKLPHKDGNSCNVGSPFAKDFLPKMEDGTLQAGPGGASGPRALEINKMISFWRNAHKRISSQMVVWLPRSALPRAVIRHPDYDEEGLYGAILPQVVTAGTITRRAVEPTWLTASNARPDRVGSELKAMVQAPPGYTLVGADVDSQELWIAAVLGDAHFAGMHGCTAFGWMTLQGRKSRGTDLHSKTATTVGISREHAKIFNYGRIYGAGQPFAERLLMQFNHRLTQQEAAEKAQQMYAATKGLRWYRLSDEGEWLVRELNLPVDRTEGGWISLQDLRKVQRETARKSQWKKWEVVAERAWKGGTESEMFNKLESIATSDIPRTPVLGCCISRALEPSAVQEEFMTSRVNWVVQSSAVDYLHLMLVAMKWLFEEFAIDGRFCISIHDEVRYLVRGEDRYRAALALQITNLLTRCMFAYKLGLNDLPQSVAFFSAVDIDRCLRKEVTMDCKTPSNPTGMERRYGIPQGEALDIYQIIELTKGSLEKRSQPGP
T1 sequence (Q9UHN1 1-485 partner): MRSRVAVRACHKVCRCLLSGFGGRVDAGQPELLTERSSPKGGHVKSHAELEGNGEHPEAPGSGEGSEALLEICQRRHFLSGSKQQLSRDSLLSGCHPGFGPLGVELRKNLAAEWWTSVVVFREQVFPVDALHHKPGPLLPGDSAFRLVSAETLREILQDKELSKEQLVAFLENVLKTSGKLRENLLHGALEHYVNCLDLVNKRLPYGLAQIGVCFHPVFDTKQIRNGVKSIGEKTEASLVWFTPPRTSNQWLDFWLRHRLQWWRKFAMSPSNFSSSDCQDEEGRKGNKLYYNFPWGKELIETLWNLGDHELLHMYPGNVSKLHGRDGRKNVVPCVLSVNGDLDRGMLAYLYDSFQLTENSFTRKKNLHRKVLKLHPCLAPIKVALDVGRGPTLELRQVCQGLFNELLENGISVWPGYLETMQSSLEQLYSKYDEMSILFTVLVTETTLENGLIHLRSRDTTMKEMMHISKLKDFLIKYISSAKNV
Format: biochemical
Description: DNA Polymerization Assay to Monitor Effects on Human Wildtype POLγ and Four Disease-Causing Mutant Variants of Human POLγ.
The ability of small molecules to stimulate the polymerase activity of POLγ was analyzed in a quantitative fluorescence SYBR Green I assay with fluorescence intensity (FI) readout.
In the presence of dNTPs, wild type human POLγ and mutant derivatives thereof were incubated with single-stranded, circular M13mp18 ssDNA hybridized to a short DNA oligonucleotide that functions as a primer for initiation of DNA synthesis. POLγ and mutant derivatives thereof will extend the primer and use the M13mp18 molecule as a template to synthesize long stretches of double-stranded DNA. SYBR Green I, which is a double-stranded DNA-binding dye, was used to quantify formation of double-stranded DNA in the reaction. When bound to double-stranded DNA, SYBR Green I fluorescence increases by up to 100-fold.
The assay was performed in the 384-well plate format. Upon addition of compounds, changes in double-stranded DNA synthesis activity can be monitored by following effects on fluorescent intensity.
The reactions also contained the accessory POLγB subunit, and the human mitochondrial single-stranded DNA binding protein (mtSSB).
The DNA template mixture used in the assay contained 0.5 nM primed M13 mp18 ssDNA, 400 nM mtSSB, 0.1 mM Tris-HCl (pH 8.0), 0.1 mM dNTP, 10 mM MgCl2, 0.1 mg/mL BSA, 1 mM TCEP solution, and 0.02% Triton X-100. The DNA template mixture for the wild type protein contained either 100 μM dNTP, 1 μM dNTP, or 0.1 μM dNTP, designated in Table 2 as 100 μM, 1 μM, and 0.1 μM, respectfully.
Microplates with compounds (0.1 μL in each well) to be tested in the assay were prepared from 10 mM compound stocks in 100% DMSO, and equal amounts of DMSO without any compound were added to positive and negative control wells.
The protein mixture was dispensed (5 μL into each well) into compound plates and incubated at 37° C. for 15 minutes. After incubation, 5 μL of the DNA template mixture was dispensed into each well. The plates were then incubated at 37° C. for 2 hours.
During incubation, a combined stop buffer and detection reagent solution was prepared. The buffer contained 25 mM EDTA (pH 8.0), 0.02% Triton X-100, and SYBR Green I [Invitrogen] diluted 10,000× (for fluorescent readout). EDTA will stop the enzymatic reaction by chelating magnesium ions.
For `Cc1cc(S(=O)(=O)Nc2csc(C(=O)N(CC(N)=O)C3CCCCC3)n2)c(C)cc1Cl` [Example 179, N-(2-amino-2-oxoethyl)-4-((4-chloro-2,5-dimethylphenyl)sulfonamido)-N-cyclohexylthiazole-2-carboxamide], the AC50 was > 10 µM. In the case of `Cc1cc(S(=O)(=O)Nc2nc(-c3ccccc3)n(C)n2)c(C)cc1Cl` [Example 180, 4-chloro-2,5-dimethyl-N-(1-methyl-5-phenyl-1H-1,2,4-triazol-3-yl)benzenesulfonamide], the AC50 is reported as > 10 µM. With `Cc1cc(S(=O)(=O)Nc2csc(-c3ccn(C)n3)n2)c(C)cc1Cl` [Example 181, 4-chloro-2,5-dimethyl-N-(2-(1-methyl-1H-pyrazol-3-yl)thiazol-4-yl)benzenesulfonamide] the AC50 was > 10 µM. An AC50 of 0.7 µM was found for `Cc1cc(S(=O)(=O)Nc2csc(-c3cnn(C)c3)n2)c(C)cc1Cl` [Example 183, 4-chloro-2,5-dimethyl-N-(2-(1-methyl-1H-pyrazol-4-yl)thiazol-4-yl)benzenesulfonamide] in this work.
